Measured values published in patent US10765114B2, “4-amino-6-(pyridyl and 2-substitutedphenyl)-picolinates and 6-amino-2-(pyridyl and 2-substitutedphenyl)-pyrimidine-4-carboxylates and their use as herbicides” (Dow AgroSciences LLC, priority 2013, dated 2020).
Where two headings read alike, the source gives them in different places.

What was measured:
[1] = system: Key Broadleaf Weed and Crop Species; assay: Post-Emergent Test II (Table 5); assay type: in vivo; conditions: post-emergence, 336 h; for pest or weed control at 70 g/ha: application rate 70 (kg ai/ha; footnote: g ai/ha); for pest or weed control at 140 g/ha: application rate 140 (kg ai/ha; footnote: g ai/ha)
Method in brief: (§1)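 Post-emergence greenhouse spray, 1st-2nd true leaf stage; track sprayer, 187 L/ha; acetone/DMSO stock diluted in aqueous acetone/IPA/DMSO with Atplus 411F and Triton X-155; rates 1× to 1/16×; subirrigated; visual injury 0 (none) to 100% (complete kill) at 14 days.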

[2] = system: Key Grass and Sedge Weeds as well as Grass Crops; assay: Post-Emergent Test II (Table 6); assay type: in vivo; conditions: post-emergence, 336 h, 14 days after application; for pest or weed control at 70 g/ha: 70 g ai/ha; for pest or weed control at 140 g/ha: 140 g ai/ha
Method in brief: as §1

[3] = Abutilon theophrasti, ABUTH: velvetleaf (Abutilon theophrasti), read-out: Visual Growth Reduction (%) 14 Days After Application ABUTH
[4] = Amaranthus retroflexus, AMARE: redroot pigweed (Amaranthus retroflexus), read-out: Visual Growth Reduction (%) 14 Days After Application AMARE
[5] = Brassica napus, BRSSS: oilseed rape, canola (Brassica napus), read-out: Visual Growth Reduction (%) 14 Days After Application BRSSS
[6] = Chenopodium album, CHEAL: lambsquarters (Chenopodium album), read-out: Visual Growth Reduction (%) 14 Days After Application CHEAL
[7] = Euphorbia heterophylla, EPHHL: wild poinsettia (Euphorbia heterophylla), read-out: Visual Growth Reduction (%) 14 Days After Application EPHHL
[8] = Helianthus annuus, HELAN: sunflower (Helianthus annuus), read-out: Visual Growth Reduction (%) 14 Days After Application HELAN
[9] = Viola tricolor, VIOTR: wild pansy (Viola tricolor), read-out: Visual Growth Reduction (%) 14 Days After Application VIOTR
[10] = CYPSS, read-out: Visual Growth Reduction (%) 14 Days After Application CYPSS
[11] = DIGSA: crabgrass (Digitaria sanguinalis), read-out: Visual Growth Reduction (%) 14 Days After Application DIGSA
[12] = ECHSS, read-out: Visual Growth Reduction (%) 14 Days After Application ECHSS
[13] = ORYSS (crop), read-out: Visual Growth Reduction (%) 14 Days After Application ORYSS
[14] = SETFA: giant foxtail (Setaria faberi), read-out: Visual Growth Reduction (%) 14 Days After Application SETFA
[15] = SORVU: grain sorghum (Sorghum vulgare), read-out: Visual Growth Reduction (%) 14 Days After Application SORVU
[16] = TRZSS (crop), read-out: Visual Growth Reduction (%) 14 Days After Application TRZSS
[17] = ZEAMX: maize, corn (Zea mays), read-out: Visual Growth Reduction (%) 14 Days After Application ZEAMX

| SMILES | melting point [°C] | pest or weed control at 70 g/ha [1, 3] [%] | pest or weed control at 140 g/ha [1, 3] [%] | pest or weed control at 70 g/ha [1, 4] [%] | pest or weed control at 140 g/ha [1, 4] [%] | pest or weed control at 70 g/ha [1, 5] [%] | pest or weed control at 140 g/ha [1, 5] [%] | pest or weed control at 70 g/ha [1, 6] [%] | pest or weed control at 140 g/ha [1, 6] [%] | pest or weed control at 70 g/ha [1, 7] [%] | pest or weed control at 140 g/ha [1, 7] [%] | pest or weed control at 70 g/ha [1, 8] [%] | pest or weed control at 140 g/ha [1, 8] [%] | pest or weed control at 70 g/ha [1, 9] [%] | pest or weed control at 140 g/ha [1, 9] [%] | pest or weed control at 70 g/ha [2, 10] [%] | pest or weed control at 140 g/ha [2, 10] [%] | pest or weed control at 70 g/ha [2, 11] [%] | pest or weed control at 140 g/ha [2, 11] [%] | pest or weed control at 70 g/ha [2, 12] [%] | other results |
| --- | --- | --- | --- | --- | --- | --- | --- | --- | --- | --- | --- | --- | --- | --- | --- | --- | --- | --- | --- | --- | --- |
| COC(=O)c1nc(-c2ccc(Cl)c(Cl)c2C)cc(N)c1Cl [Compound 77] | 136 to 142 | 95 to 100 | 95 to 100 | 95 to 100 | 95 to 100 | 95 to 100 | 95 to 100 | 95 to 100 | 95 to 100 | 0 to 29 | 0 to 29 | 45 to 59 | 60 to 74 | 0 to 29 | 0 to 29 | 0 to 29 | 0 to 29 | 0 to 29 | 0 to 29 | 0 to 29 | pest or weed control at 140 g/ha [2, 12]: 0 to 29%; pest or weed control at 70 g/ha [2, 13]: 0 to 29%; pest or weed control at 140 g/ha [2, 13]: 0 to 29%; pest or weed control at 70 g/ha [2, 14]: 0 to 29%; pest or weed control at 140 g/ha [2, 14]: 0 to 29%; pest or weed control at 70 g/ha [2, 15]: 0 to 29%; pest or weed control at 140 g/ha [2, 15]: 0 to 29%; pest or weed control at 70 g/ha [2, 16]: 0 to 29%; pest or weed control at 140 g/ha [2, 16]: 0 to 29%; pest or weed control at 70 g/ha [2, 17]: 0 to 29%; pest or weed control at 140 g/ha [2, 17]: 0 to 29% |
| Cc1c(-c2cc(N)c(Cl)c(C(=O)O)n2)ccc(F)c1F [Compound 87] | 163 to 165 | 95 to 100 | 95 to 100 | 95 to 100 | 95 to 100 | 85 to 94 | 85 to 94 | 95 to 100 | 95 to 100 | 0 to 29 | 0 to 29 | 85 to 94 | 95 to 100 | 0 to 29 | 0 to 29 | 0 to 29 | 0 to 29 | 0 to 29 | 0 to 29 | 0 to 29 | pest or weed control at 140 g/ha [2, 12]: 0 to 29%; pest or weed control at 70 g/ha [2, 13]: 0 to 29%; pest or weed control at 140 g/ha [2, 13]: 0 to 29%; pest or weed control at 70 g/ha [2, 14]: 0 to 29%; pest or weed control at 140 g/ha [2, 14]: 0 to 29%; pest or weed control at 70 g/ha [2, 15]: 0 to 29%; pest or weed control at 140 g/ha [2, 15]: 0 to 29%; pest or weed control at 70 g/ha [2, 16]: 0 to 29%; pest or weed control at 140 g/ha [2, 16]: 0 to 29%; pest or weed control at 70 g/ha [2, 17]: 0 to 29%; pest or weed control at 140 g/ha [2, 17]: 0 to 29% |
